# Tested on: male Zucker Fatty Rats
# Assay: In vivo activity in glucose tolerance model (oral glucose challenge)
# Set-up: species or system rat
# Conditions: mean ± SE, n = 4; for Blood glucose, t = 10: t = 10 minutes; for Blood glucose, t = 20: t = 20 minutes; for Blood glucose, t = 30: t = 30 minutes; for Blood glucose, t = 60: t = 60 minutes; for Blood glucose, t = 120: t = 120 minutes
# Description: The activity of the compounds was investigated in male Zucker Fatty Rats between 10 and 20 weeks of age. The animals were fasted overnight and then administered with the test compound (10 mg/kg) as a solution by oral gavage. One hour later hour a blood sample (200 μl) is taken from the tail vein to establish a baseline (t=0) glucose level, then the animals are given glucose (1 g/kg as a 40% wt/vol solution) orally. Further blood samples are taken at t=10, 20, 30, 60 and 120 minutes. Glucose is determined by an enzymatic assay.
# In a separate experiment the test compound was given at the same dose (10 mg/kg) but 12 hours before the oral glucose challenge.
# [1] = 10 mg/kg given 12 hours before the oral glucose challenge
# [2] = 10 mg/kg oral gavage 1 hour before oral glucose (1 g/kg), baseline t = 0
# [3] = 10 mg/kg oral gavage 1 hour before oral glucose (1 g/kg)
SMILES,AUC (area under the concentration-time curve) of blood glucose [1],"Blood glucose, t = 0 (10 mg/kg given 12 hours before the oral glucose challenge, t = 0) [mg/dL]","Blood glucose, t = 10 [1] [mg/dL]","Blood glucose, t = 20 [1] [mg/dL]","Blood glucose, t = 30 [1] [mg/dL]","Blood glucose, t = 60 [1] [mg/dL]","Blood glucose, t = 120 [1] [mg/dL]","Blood glucose, t = 0 [2] [mg/dL]","Blood glucose, t = 10 [3] [mg/dL]","Blood glucose, t = 20 [3] [mg/dL]","Blood glucose, t = 30 [3] [mg/dL]","Blood glucose, t = 60 [3] [mg/dL]","Blood glucose, t = 120 [3] [mg/dL]"
"CC(=O)OC(C)OC(=O)N[C@H](C(=O)N1CCC[C@H]1C#N)C(C)(C)C (stereo partly drawn) [Example 1, (2S)-1-((2′S)-2′-(1″-Acetoxyethoxycarbonylamino)-3′,3′-dimethylbutanoyl)pyrrolidine-2-carbonitrile]",2430 ± 591,83.7 ± 3.8,113.5 ± 10.8,111.3 ± 9.9,91.9 ± 11.8,99.3 ± 10.0,116.9 ± 14.4,,,,,,
"CC[C@H](C)[C@H](NC(=O)CN)C(=O)N1CCC[C@H]1C#N [Example 5, (2S)-1-(Glycylisoleucyl)pyrrolidine-2-carbonitrile]",,,,,,,,80.5 ± 1.4,141.3 ± 14.5,134.2 ± 10.3,129.2 ± 8.2,114.6 ± 8.1,121.2 ± 5.8
"CC[C@H](C)[C@H](NC(=O)OC)C(=O)N1CCC[C@H]1C#N [Example 3, (2S)-1-(N′-(Methoxycarbonyl)isoleucyl)pyrrolidine-2-carbonitrile]",,,,,,,,86.4 ± 3.4,175.1 ± 3.8,148.5 ± 23.2,136.7 ± 16.9,120.6 ± 8.3,101.9 ± 4.5
"CC[C@H](C)[C@H](N)C(=O)N1CCC[C@H]1C#N [Reference, (2S)-1-(Isoleucyl)pyrrolidine-2-carbonitrile, reference compound]",,,,,,,,91.4 ± 5.2,125.8 ± 8.9,110.0 ± 21.5,110.9 ± 4.4,112.2 ± 7.5,108.7 ± 8.9
"CC[C@H](C)[C@H](NC(=O)OC(C)OC(C)=O)C(=O)N1CCC[C@H]1C#N (stereo partly drawn) [Example 2, (2S)-1-(N′-(1″-Acetoxyethoxycarbonyl)isoleucyl)pyrrolidine-2-carbonitrile]",,,,,,,,80.2 ± 4.2,122.2 ± 7.8,117.8 ± 4.8,104.4 ± 5.6,117.6 ± 6.7,111.3 ± 12.1

# Reference: US7169806B2, “Antidiabetic agents” (Ferring BV, priority 1999, dated 2007)
